Literature values as cited in publication PMC6974622, “DeepMalaria: Artificial Intelligence Driven Discovery of Potent Antiplasmodials” (Frontiers in Pharmacology, 2020).
Several values for one entry are separate records, joined by “and”; a condition that tells them apart may be missing. Equal values may be shown once. Where a name gives a salt, the structure may show the parent alone. *1 amine or outer side, *2 acyl side, *3 side chain or, on linkers, in order; H or OH if unused. Where a SMILES comes first, the peptide text is derived from it. Bridges are numbered along the chain shown (N, C = ends). Roman numbers before positions name the chains, in order. [ ]: non-standard residue; d: D form. Actinocin(1to9) = Cc1c2oc3c(C)ccc(C(=O)[*:2])c3nc-2c(C(=O)[*:1])c(N)c1=O; Actinocin(9to1) = Cc1c2oc3c(C)ccc(C(=O)[*:1])c3nc-2c(C(=O)[*:2])c(N)c1=O; NMeV = CN[C@H](C(=O)O)C(C)C; Sar = CNCC(=O)O

Tested on: 3D7
Design: unit not given here
Settings: cited from earlier work

Row | SMILES | 3D7
1 | CC[C@H](C)[C@@H]1NC(=O)[C@@H](NC(=O)c2c3nc4c(C(=O)N[C@@H]5C(=O)N[C@@H](C(C)C)C(=O)N6CCC[C@H]6C(=O)N(C)CC(=O)N(C)[C@@H](C(C)C)C(=O)O[C@@H]5C)ccc(C)c4oc-3c(C)c(=O)c2N)[C@@H](C)OC(=O)[C@H](C(C)C)N(C)C(=O)CN(C)C(=O)[C@@H]2CCCN2C1=O [Cactinomycin] (I: TIP[Sar][NMeV] / II: TVP[Sar][NMeV]; ester I:1-I:C, II:1-II:C; linker I:N-II:N via Actinocin(1to9)) | 99
2 | O=P1(N(CCCl)CCCl)NCCCO1 (stereo not drawn) [Cyclophosphamide] | 56.2
3 | COc1cc2ncnc(Nc3ccc(F)c(Cl)c3)c2cc1OCCCN1CCOCC1 [Geftinib] | 67.6
4 | CN(C)c1ccc(C(=C2C=CC(=[N+](C)C)C=C2)c2ccccc2)cc1 [Malachite green] | 86.9
5 | CNCCCC12CCC(c3ccccc31)c1ccccc12 [Maprotiline] | 62.7
6 | COC(=O)C1=C(C)NC(C)=C(C(=O)OCCCN2CCC(c3ccccc3)(c3ccccc3)CC2)[C@H]1c1cccc([N+](=O)[O-])c1 [Niguldipine] | 89.3

Same assay, conditions: repurposing dataset, 179 approved drugs; ref https://www.nature.com/articles/nchembio806; cited from earlier work

Row | SMILES | 3D7
7 | CCCCCCCCCCCCCCCC[N+](C)(C)Cc1ccccc1 [Cetalkonium chloride] | 74.2
8 | CCCCCCCCCCCCCCCC[n+]1ccccc1 [Cetylpyridinium chloride] | 98.6
9 | [H]/N=C(\N/C(=N/[H])NCCCCCCNC(=N)NC(=N)Nc1ccc(Cl)cc1)Nc1ccc(Cl)cc1 [Chlorhexidine] | 95.4
10 | CCN(CC)CCCC(C)Nc1ccnc2cc(Cl)ccc12 (stereo not drawn) [Chloroquine diphosphate] | 97.3
11 | CN(C)CCOC(C)(c1ccccc1)c1ccc(Cl)cc1 (stereo not drawn) [Chlorphenoxamine] | 90.8
12 | CO[C@@H]1[C@H](O)C[C@@H](O[C@@H]2C[C@H](Oc3cc4cc5c(c(O)c4c(O)c3C)C(=O)[C@@H](O[C@H]3C[C@@H](O[C@H]4C[C@@H](O[C@H]6C[C@](C)(O)[C@@H](OC(C)=O)[C@H](C)O6)[C@H](O)[C@@H](C)O4)[C@H](O)[C@@H](C)O3)[C@H]([C@H](OC)C(=O)[C@@H](O)[C@@H](C)O)C5)O[C@H](C)[C@@H]2OC(C)=O)O[C@@H]1C [Chromomycin A3] | 98.4
13 | Cc1cc(C2CCCCC2)n(O)c(=O)c1 [Ciclopirox olamine] | 96.9
14 | C=C[C@H]1CN2CC[C@H]1C[C@H]2[C@H](O)c1ccnc2ccccc12 [Cinchonidine] | 97
15 | C=C[C@H]1CN2CC[C@H]1C[C@@H]2[C@@H](O)c1ccnc2ccccc12.C=C[C@H]1CN2CC[C@H]1C[C@@H]2[C@@H](O)c1ccnc2ccccc12.O=S(=O)(O)O [Cinchonine sulfate] | 88.6
16 | CN1CCC[C@@H]1CCO[C@](C)(c1ccccc1)c1ccc(Cl)cc1 [Clemastine] | 96.5
17 | NC1CCN(c2c(F)cc3c(=O)c(C(=O)O)cn(C4CC4)c3c2Cl)C1 (stereo not drawn) [Clinafloxacin] | 79.3
18 | CCC(=O)O[C@]1(C(=O)CCl)[C@@H](C)C[C@H]2[C@@H]3CCC4=CC(=O)C=C[C@]4(C)[C@@]3(F)[C@@H](O)C[C@@]21C [Clobetasol propionate] | 86
19 | Oc1ccc(Cl)c2cccnc12 [Cloxyquin] | 83.6
20 | O=S(=O)([O-])[O-].[Cu+2] [Copper sulfate] | 80.4
21 | C[C@@H]1C[C@@H]([C@H](O)CC2CC(=O)NC(=O)C2)C(=O)[C@@H](C)C1 [Cycloheximide] | 97.7
22 | Cc1c2oc3c(C)ccc(C(=O)N[C@@H]4C(=O)N[C@H](C(C)C)C(=O)N5CCC[C@H]5C(=O)N(C)CC(=O)N(C)[C@@H](C(C)C)C(=O)O[C@@H]4C)c3nc-2c(C(=O)N[C@@H]2C(=O)N[C@H](C(C)C)C(=O)N3CCC[C@H]3C(=O)N(C)CC(=O)N(C)[C@@H](C(C)C)C(=O)O[C@@H]2C)c(N)c1=O [Dactinomycin] (I: T[dV]P[Sar][NMeV] / II: T[dV]P[Sar][NMeV]; ester I:1-I:C, II:1-II:C; linker I:N-II:N via Actinocin(9to1)) | 99.2
23 | COc1cccc2c1C(=O)c1c(O)c3c(c(O)c1C2=O)C[C@@](O)(C(C)=O)C[C@@H]3O[C@H]1C[C@H](N)[C@H](O)[C@H](C)O1 [Daunorubicin] | 99.6
24 | C[N+](C)(C)CCCCCCCCCC[N+](C)(C)C [Decamethonium bromide] | 54.8
25 | CN(CCCCCCCCCCN(C)C(=O)Oc1cccc([N+](C)(C)C)c1)C(=O)Oc1cccc([N+](C)(C)C)c1 [Demecarium bromide] | 95.9
26 | Cc1cc(N)c2ccccc2[n+]1CCCCCCCCCC[n+]1c(C)cc(N)c2ccccc21 [Dequalinium chloride] | 97.6
27 | Clc1ccc2c(c1)CCc1cccnc1C2=C1CCNCC1 [Desloratadine] | 81.1

Row | SMILES | 3D7
28 | Oc1ccc(CCN2CCC(Nc3nc4ccccc4n3Cc3ccc(F)cc3)CC2)cc1 [Desmethylastemizole] | 96.7
29 | CCOC(=O)NC1=C(N2CC2)C(=O)C(NC(=O)OCC)=C(N2CC2)C1=O [Diaziquone] | 97.3
30 | CC/C(=C(/CC)c1ccc(O)cc1)c1ccc(O)cc1 [Diethylstilbestrol] | 57.3
31 | CN1C[C@H](C(=O)N[C@]2(C)O[C@@]3(O)[C@@H]4CCCN4C(=O)[C@H](Cc4ccccc4)N3C2=O)C[C@@H]2c3cccc4[nH]cc(c34)C[C@H]21 [Dihydroergotamine mesylate] | 88.1
32 | C[N+]1(C)CCC(=C(c2ccccc2)c2ccccc2)CC1 [Diphemanil] | 90
33 | CCN1/C(=C/C=C/C=C/c2sc3ccccc3[n+]2CC)Sc2ccccc21 [Dithiazanine iodide] | 98
34 | CCCCCCCCCCCC[N+](C)(C)CCOc1ccccc1 [Domiphen bromide] | 98.3
35 | O=c1[nH]c2ccccc2n1CCCN1CCC(n2c(=O)[nH]c3cc(Cl)ccc32)CC1 [Domperidone] | 82.2
36 | COc1cc2nc(N3CCN(C(=O)C4COc5ccccc5O4)CC3)nc(N)c2cc1OC (stereo not drawn) [Doxazosin mesylate] | 96.4
37 | COc1cccc2c1C(=O)c1c(O)c3c(c(O)c1C2=O)C[C@@](O)(C(=O)CO)C[C@@H]3O[C@H]1C[C@H](N)[C@H](O)[C@H](C)O1 [Doxorubicin] | 99.5
38 | O=c1oc2c(O)c(O)cc3c(=O)oc4c(O)c(O)cc1c4c23 [Ellagic acid] | 87.1
39 | CC[C@H]1CN2CCc3cc(OC)c(OC)cc3[C@@H]2C[C@@H]1C[C@H]1NCCc2cc(OC)c(OC)cc21 [Emetine] | 98.3
40 | COc1cccc2c1C(=O)c1c(O)c3c(c(O)c1C2=O)C[C@@](O)(C(=O)CO)C[C@@H]3O[C@H]1C[C@H](N)[C@@H](O)[C@H](C)O1 [Epirubicin] | 98.4
41 | CNC(=O)Oc1ccc2c(c1)[C@]1(C)CCN(C)[C@@H]1N2C [Eserine] | 79.2
42 | CCOc1ccc2nc3cc(N)ccc3c(N)c2c1 [Ethacridine lactate] | 96.2
43 | O=c1[nH]cc(F)c(=O)[nH]1 [Fluorouracil] | 89.2
44 | Fc1ccc(C(c2ccccc2)(c2ccccc2F)n2ccnc2)cc1 (stereo not drawn) [Flutrimazole] | 85.2
45 | Nc1ccn([C@@H]2O[C@H](CO)[C@@H](O)C2(F)F)c(=O)n1 [Gemcitabine] | 75.3
46 | CN(C)c1ccc(C(=C2C=CC(=[N+](C)C)C=C2)c2ccc(N(C)C)cc2)cc1 [Gentian violet] | 98.7
47 | N=C(N)N/N=C/c1c(Cl)cccc1Cl [Guanabenz acetate] | 92.7
48 | CCCCC(CC)CN1CN(CC(CC)CCCC)CC(C)(N)C1 (stereo not drawn) [Hexetidine] | 86.2

Row | SMILES | 3D7
49 | CC[n+]1c(-c2ccccc2)c2cc(N)ccc2c2ccc(N)cc21 [Homidium bromide] | 98.9
50 | CCN(CCO)CCCC(C)Nc1ccnc2cc(Cl)ccc12 (stereo not drawn) [Hydroxychloroquine] | 97.7
51 | CC(=O)[C@]1(O)Cc2c(O)c3c(c(O)c2[C@@H](O[C@H]2C[C@H](N)[C@H](O)[C@H](C)O2)C1)C(=O)c1ccccc1C3=O [Idarubicin] | 98.9
52 | CC(C(O)c1ccc(O)cc1)N1CCC(Cc2ccccc2)CC1 (stereo not drawn) [Ifenprodil] | 82.3
53 | CC[C@@H](C(=O)[C@@H](C)[C@@H](O)[C@H](C)CCc1ccc(C)c(O)c1C(=O)O)[C@H]1O[C@](CC)([C@H]2CC[C@](O)(CC)[C@H](C)O2)C[C@@H]1C [Lasalocid A] | 98.2
54 | CN(C)C(=O)C(CCN1CCC(O)(c2ccc(Cl)cc2)CC1)(c1ccccc1)c1ccccc1 [Loperamide] | 97.7
55 | Cc1cccc(C)c1OCC(=O)N[C@@H](Cc1ccccc1)[C@@H](O)C[C@H](Cc1ccccc1)NC(=O)[C@H](C(C)C)N1CCCNC1=O [Lopinavir] | 84.9
56 | [Cl][Mn][Cl] [Manganese chloride] | 94.1
57 | CN1CCc2c(c3ccccc3n2Cc2ccccc2)C1 [Mebhydrolin] | 57.1
58 | OC(c1cc(C(F)(F)F)nc2c(C(F)(F)F)cccc12)C1CCCCN1 (stereo not drawn) [Mefloquine] | 97.7
59 | N[C@@H](Cc1ccc(N(CCCl)CCCl)cc1)C(=O)O [Melphalan] | 59.5
60 | S=c1[nH]cnc2nc[nH]c12 [Mercaptopurine] | 91.8
61 | CN1C[C@H](CNC(=O)OCc2ccccc2)C[C@@H]2c3cccc4c3c(cn4C)C[C@H]21 [Metergoline] | 85.9
62 | CN(Cc1cnc2nc(N)nc(N)c2n1)c1ccc(C(=O)N[C@@H](CCC(=O)O)C(=O)O)cc1 [Methotrexate] | 98.4
63 | Cc1cc(C(C)(C)CC(C)(C)C)ccc1OCCOCC[N+](C)(C)Cc1ccccc1.[Cl-] [Methylbenzethonium chloride] | 97.7
64 | CN(C)c1ccc2nc3ccc(=[N+](C)C)cc-3sc2c1 [Methylene blue] | 98
65 | COCC(=O)O[C@]1(CCN(C)CCCc2nc3ccccc3[nH]2)CCc2cc(F)ccc2[C@@H]1C(C)C [Mibefradil] | 92
66 | CCCCCCCCCCCCCCCCOP(=O)([O-])OCC[N+](C)(C)C [Miltefosine] | 99.5
67 | O=C1c2c(O)ccc(O)c2C(=O)c2c(NCCNCCO)ccc(NCCNCCO)c21 [Mitoxantrone] | 99.2 and 98.4
68 | COc1c(C)c2c(c(O)c1C/C=C(\C)CCC(=O)O)C(=O)OC2 [Mycophenolic acid] | 92.7
69 | O=[N+]([O-])c1ccc(O)c2ncccc12 [Nitroxoline] | 97.2
